Test results as given in patent US20240018146A1, “COMPOSITIONS AND METHODS OF USING THE SAME FOR TREATMENT OF NEURODEGENERATIVE AND MITOCHONDRIAL DISEASE” (MITOKININ, INC., priority 2020, published 2024).
Where two headings read alike, the source gives them in different places.

Key:
HeLa MKYP cells [1] = experiment: Human mitophagy assay (HeLa mKeima assay, FACS); format: cell-based; settings: read-out: Mitophagy induction EC50
Protocol: Briefly, HeLa MKYP cells were plated at 10,000 cells/well in 96 well plates along with compounds at various concentrations. Following 16 hrs of incubation, cells were treated with 1 uM FCCP/oligomycin for 6 hours, then analyzed via FACS for the presence of mitochondria in lysosomes (as determined by an emissions spectrum shift from the pH-sensitive mtKeima tag).
Briefly, HeLa cells expressing a mitophagy indicator (mtKeima) protein were treated with […] of FCCP and Oligomycin followed by the specified dose of compound, then analyzed by FACS to quantify the percentage of cells undergoing mitophagy.

HeLa MKYP cells [2] = experiment: Cell death measured by DAPI staining, with 1 μM FCCP/oligomycin or no toxin (no FO); format: cell-based
Protocol: EP-0035985, EP-0037821, EP-0038098, and EP-0038099 in the presence of 1 μM FCCP/oligomycin or with no toxin (no FO) for 6 hrs. H2O2 treatment was performed as a control for cell death as measured by DAPI staining.
EP-0035985, EP-0038461, EP-0038463, and EP-0038503 in the presence of 1 μM FCCP/oligomycin or with no toxin (no FO) for 6.5 hrs. H2O2 treatment was performed as a control for cell death as measured by DAPI staining.
EP-0035985, EP-0038504, EP-0038508, and EP-0038521 in the presence of 1 μM FCCP/oligomycin or with no toxin (no FO) for 6.5 hrs. H2O2 treatment was performed as a control for cell death as measured by DAPI staining.
EP-0035985, EP-0038461, EP-0038463, EP-0038503, EP-0038504, EP-0038508, and EP-0038521 in the presence of 1 μM FCCP/oligomycin or with no toxin (no FO) for 6.5 hrs. H2O2 treatment was performed as a control for cell death as measured by DAPI staining.

| SMILES | EC50 (HeLa MKYP cells [1]) [µM] | Highest safe dose (cytotoxicity; no FO; safe means DAPI+ <20%) (HeLa MKYP cells [2]) [µM] | Max % death with 1 μM FO (HeLa MKYP cells [2]) [%] | EC50 (HeLa MKYP cells [1]; Homo sapiens, HeLa) [µM] |
| --- | --- | --- | --- | --- |
| Fc1ccc2c(c1)OC[C@H](N1C[C@H]3COC[C@@H]3C1)[C@H]2Nc1ncnc2[nH]c(C(F)(F)F)cc12 (single isomer, unassigned) [EP-0040563] | 1.05 | 25.0 | 9.7 |  |
| Fc1cccc2c1CC[C@H](N1C[C@H]3COC[C@H]3C1)[C@H]2Nc1ncnc2[nH]c(C3CC3)cc12 (single isomer, unassigned) [EP-0040576] |  | 25.0 | 21.2 | 2.79 |
| CN1CCN([C@H]2CCc3ccccc3[C@@H]2Nc2ncnc3[nH]c(C(F)(F)F)cc23)CC1 (single isomer, unassigned) [EP-0040578] |  | 25.0 | 14.4 | 3.54 |
| CN1CCN([C@@H]2CCc3ccccc3[C@H]2Nc2ncnc3[nH]c(C(F)(F)F)cc23)CC1 (single isomer, unassigned) [EP-0040579] |  | 25.0 | 20.3 | 9.02 |
| FC(F)(F)c1cc2c(N[C@@H]3c4ccccc4CC[C@H]3C3CCOCC3)ncnc2[nH]1 (single isomer, unassigned) [EP-0040581] |  | 25.0 | 8.1 | 2.69 |
| FC(F)(F)c1cc2c(N[C@H]3c4ccccc4OC[C@@H]3C3CCOCC3)ncnc2[nH]1 (single isomer, unassigned) [EP-0040699] |  | 25.0 | 3.7 | > 25 |
| Fc1ccc2c(c1)CC[C@H](N1C[C@H]3COC[C@H]3C1)[C@H]2Nc1ncnc2[nH]c(C(F)(F)F)cc12 (single isomer, unassigned) [EP-0040720] |  | 25.0 | 12.1 | 6.25 |
| OC1CC2(C1)CN([C@H]1COc3ccccc3[C@@H]1Nc1ncnc3[nH]c(C(F)(F)F)cc13)C2 (single isomer, unassigned) [EP-0040725] |  | 25.0 | 3.4 | > 25 |
| Fc1ccc2c(c1)OC[C@H](N1C[C@H]3COC[C@@H]3C1)[C@H]2Nc1ncnc2[nH]c(C(F)(F)F)cc12 (single isomer, unassigned) [EP-0040747] | > 25 | 25.0 | 5.8 |  |
| Fc1ccc2c(c1)OC[C@H](N1C[C@@H]3COC[C@H]3C1)[C@H]2Nc1ncnc2[nH]c(C3CC3)cc12 (single isomer, unassigned) [EP-0040873] | > 25 | 25.0 | 4.3 |  |
| FC(F)(F)c1cc2c(N[C@H]3c4ccccc4OC[C@@H]3C3CCCOC3)ncnc2[nH]1 (single isomer, unassigned) [EP-0041002] |  | 25.0 | 4.5 | 6.18 |
| FC(F)(F)c1cc2c(N[C@H]3c4ccc(Br)cc4OC[C@@H]3N3CCOCC3)ncnc2[nH]1 (single isomer, unassigned) [EP-0041021] |  | 25.0 | 13.2 | 3.38 |
| COC[C@@H]1CCN([C@H]2COc3ccccc3[C@@H]2Nc2ncnc3[nH]c(C(F)(F)F)cc23)C1 (single isomer, unassigned) [EP-0041072] | > 25 | 25.0 | 8.0 |  |
| COC1CN([C@H]2COc3cc(F)ccc3[C@@H]2Nc2ncnc3[nH]c(C(F)(F)F)cc23)C1 (single isomer, unassigned) [EP-0041089] |  | 25.0 | 10.2 | 1.97 |
| COC[C@H]1CCN([C@H]2COc3ccccc3[C@@H]2Nc2ncnc3[nH]c(C(F)(F)F)cc23)C1 (single isomer, unassigned) [EP-0041174] | 15.3 | 25.0 | 4.6 |  |
| [2H]C([2H])([2H])OC1CN([C@H]2COc3ccccc3[C@@H]2Nc2ncnc3[nH]c(C(F)(F)F)cc23)C1 (single isomer, unassigned) [EP-0041248] |  | 25.0 | 10.5 | 0.49 |
| CC1(O)CN([C@@H]2COc3ccccc3[C@H]2Nc2ncnc3[nH]c(C(F)(F)F)cc23)C1 (single isomer, unassigned) [EP-0041264] |  | 25.0 | 2.5 | > 25 |
| OC(C1CCOCC1)C1COc2ccccc2C1Nc1ncnc2[nH]c(C(F)(F)F)cc12 (single isomer, unassigned) [EP-0041269] | > 25 | 25.0 | 2.9 |  |
| OC(C1CCOCC1)C1COc2ccccc2C1Nc1ncnc2[nH]c(C(F)(F)F)cc12 (single isomer, unassigned) [EP-0041270] | 0.86 | 25.0 | 11.6 |  |
| COC1(C)CN(C2COc3ccccc3C2Nc2ncnc3[nH]c(C(F)(F)F)cc23)C1 (single isomer, unassigned) [EP-0041300] |  | 25.0 | 11.1 | 4.35 |
| FC1COCCC1[C@H]1COc2ccccc2[C@@H]1Nc1ncnc2[nH]c(C(F)(F)F)cc12 (single isomer, unassigned) [EP-0041322] | > 25 | 25.0 | 11.0 |  |
| FC1COCCC1[C@H]1COc2ccccc2[C@@H]1Nc1ncnc2[nH]c(C(F)(F)F)cc12 (single isomer, unassigned) [EP-0041323] | 11 | 25.0 | 9.2 |  |
| FC1COCCC1[C@H]1COc2ccccc2[C@@H]1Nc1ncnc2[nH]c(C(F)(F)F)cc12 (single isomer, unassigned) [EP-0041324] | 12.3 | 25.0 | 10.4 |  |
| FC1COCCC1[C@H]1COc2ccccc2[C@@H]1Nc1ncnc2[nH]c(C(F)(F)F)cc12 (single isomer, unassigned) [EP-0041325] | 18.8 | 25.0 | 5.5 |  |
| CC(C)(O)C1CN([C@H]2COc3ccccc3[C@@H]2Nc2ncnc3[nH]c(C(F)(F)F)cc23)C1 (single isomer, unassigned) [EP-0041490] |  | 25.0 | 3.4 | > 25 |
| COC[C@@H]1CCCN1[C@H]1COc2ccccc2[C@@H]1Nc1ncnc2[nH]c(C(F)(F)F)cc12 (single isomer, unassigned) [EP-0041491] |  | 25.0 | 3.7 | 10.2 |
| COC[C@H]1CCCN1[C@H]1COc2ccccc2[C@@H]1Nc1ncnc2[nH]c(C(F)(F)F)cc12 (single isomer, unassigned) [EP-0041492] |  | 25.0 | 8.3 | 1.78 |
